Holding throughout (assay): biochemical
Set-up in all cases: Eurofins recombinant human kinase profiling, remaining kinase activity as % of control, 10 uM ATP
Details in all cases: ATP 10 uM; read-out: %Ctrl@10 μM

In assay [1] the target is T1, AMPKα1(h) (Homo sapiens, UniProt Q13131).
T1 construct: gene PRKAA1
The procedure, abridged:
(§1)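 Recombinant human kinases, 401 in total, screened using an outsourced kinase profiling assay.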

The target of assay [2] is BTK(R28H)(h) (Homo sapiens, UniProt Q06187, R28H). The procedure, abridged: as §1
The target of assay [3] is CDK16/cyclinY(h) (Homo sapiens, UniProt Q00536). The method, boiled down:
as §1

Assay [4] concerns the target CDKL3(h) (Homo sapiens, UniProt Q8IVW4). The procedure, abridged:
as §1

The target of assay [5] is T2, CHK2(h) (Homo sapiens, UniProt O96017).
T2 construct: gene CHEK2
The procedure, abridged:
as §1

Assay [6] concerns the target T3, CaMKIγ(h) (Homo sapiens, UniProt Q96NX5).
T3 construct: gene CAMK1G
The procedure, abridged:
as §1

The target in assay [7] is EphA3(h) (Homo sapiens, UniProt P29320). The method, boiled down:
as §1

For assay [8], the target named is JAK1(h) (Homo sapiens, UniProt P23458). The method, boiled down:
as §1

The target in assay [9] is LRRK2(h) (Homo sapiens, UniProt Q5S007). The method, boiled down:
as §1

In assay [10] the target is MAP4K4(h) (Homo sapiens, UniProt O95819). The procedure, abridged: as §1
Assay [11] has as its target T4, NIM1(h) (Homo sapiens, UniProt Q8IY84).
T4 construct: gene NIM1K
The procedure, abridged: as §1

Assay [12] deals with T5, PDHK4(h) (Homo sapiens, UniProt Q16654).
T5 construct: gene PDK4
The method, boiled down:
as §1

The target of assay [13] is T6, PI3 Kinase (p110(H1047R)/p85)(h) (Homo sapiens, UniProt P42336, H1047R).
T6 construct: gene PIK3CA
The procedure, abridged: as §1

For assay [14], the target named is T7, PKBβ(h) (Homo sapiens, UniProt P31751).
T7 construct: gene AKT2
The procedure, abridged:
as §1

Assay [15] concerns the target T8, PKCβI(h) (Homo sapiens, UniProt P05771).
T8 construct: gene PRKCB; isoform beta I
The method, boiled down:
as §1

Assay [16] addresses T9, Pim-1(h) (Homo sapiens, UniProt P11309).
T9 construct: gene PIM1
The method, boiled down:
as §1

Assay [17] deals with SRMS(h) (Homo sapiens, UniProt Q9H3Y6). The procedure, abridged: as §1
Assay [18] addresses T10, TrkC(h) (Homo sapiens, UniProt Q16288).
T10 construct: gene NTRK3
The method, boiled down:
as §1

For assay [19], the target named is VRK1(h) (Homo sapiens, UniProt Q99986). The method, boiled down:
as §1

Assay [20] deals with T11, ZAK(h) (Homo sapiens, UniProt Q9NYL2).
T11 construct: gene MAP3K20
The procedure, abridged: as §1

Assay [21] addresses T12, cKit(h) (Homo sapiens, UniProt P10721).
T12 construct: gene KIT
The procedure, abridged: as §1

Assay [22] addresses T13, p70S6K(h) (Homo sapiens, UniProt P23443).
T13 construct: gene RPS6KB1
The procedure, abridged:
as §1

T1 sequence (Q13131 whole entry): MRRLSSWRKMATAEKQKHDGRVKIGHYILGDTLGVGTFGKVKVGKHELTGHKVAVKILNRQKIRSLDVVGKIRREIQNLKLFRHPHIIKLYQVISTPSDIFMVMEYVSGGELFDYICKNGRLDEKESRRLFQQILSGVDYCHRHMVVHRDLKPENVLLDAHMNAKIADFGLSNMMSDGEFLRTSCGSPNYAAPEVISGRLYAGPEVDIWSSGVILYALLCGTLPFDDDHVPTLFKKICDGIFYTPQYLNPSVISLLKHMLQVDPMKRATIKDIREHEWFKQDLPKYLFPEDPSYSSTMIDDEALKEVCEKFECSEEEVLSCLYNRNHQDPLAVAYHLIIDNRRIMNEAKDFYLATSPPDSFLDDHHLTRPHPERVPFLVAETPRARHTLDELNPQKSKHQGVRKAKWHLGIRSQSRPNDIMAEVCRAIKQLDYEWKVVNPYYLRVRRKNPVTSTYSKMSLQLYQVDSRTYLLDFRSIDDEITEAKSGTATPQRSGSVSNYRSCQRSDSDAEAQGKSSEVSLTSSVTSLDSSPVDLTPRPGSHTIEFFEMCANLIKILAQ
T1 sequence (P54619 whole entry partner): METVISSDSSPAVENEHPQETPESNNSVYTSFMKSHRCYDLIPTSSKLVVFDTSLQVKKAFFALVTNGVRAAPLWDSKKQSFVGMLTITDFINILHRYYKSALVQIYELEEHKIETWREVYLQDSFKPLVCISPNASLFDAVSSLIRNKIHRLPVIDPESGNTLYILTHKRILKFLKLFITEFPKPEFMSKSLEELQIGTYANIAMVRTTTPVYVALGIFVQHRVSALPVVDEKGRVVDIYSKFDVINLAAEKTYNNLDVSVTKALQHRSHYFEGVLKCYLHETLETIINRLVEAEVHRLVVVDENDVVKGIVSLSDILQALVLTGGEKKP
T1 sequence (Q9Y478 whole entry partner): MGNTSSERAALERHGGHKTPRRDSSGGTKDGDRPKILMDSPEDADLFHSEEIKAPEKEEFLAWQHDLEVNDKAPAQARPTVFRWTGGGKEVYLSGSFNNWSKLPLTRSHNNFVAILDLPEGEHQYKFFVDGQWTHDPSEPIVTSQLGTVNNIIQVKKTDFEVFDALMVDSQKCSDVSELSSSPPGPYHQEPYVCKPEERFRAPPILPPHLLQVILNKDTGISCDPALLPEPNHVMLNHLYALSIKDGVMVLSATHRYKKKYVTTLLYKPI
T2 sequence (O96017 whole entry): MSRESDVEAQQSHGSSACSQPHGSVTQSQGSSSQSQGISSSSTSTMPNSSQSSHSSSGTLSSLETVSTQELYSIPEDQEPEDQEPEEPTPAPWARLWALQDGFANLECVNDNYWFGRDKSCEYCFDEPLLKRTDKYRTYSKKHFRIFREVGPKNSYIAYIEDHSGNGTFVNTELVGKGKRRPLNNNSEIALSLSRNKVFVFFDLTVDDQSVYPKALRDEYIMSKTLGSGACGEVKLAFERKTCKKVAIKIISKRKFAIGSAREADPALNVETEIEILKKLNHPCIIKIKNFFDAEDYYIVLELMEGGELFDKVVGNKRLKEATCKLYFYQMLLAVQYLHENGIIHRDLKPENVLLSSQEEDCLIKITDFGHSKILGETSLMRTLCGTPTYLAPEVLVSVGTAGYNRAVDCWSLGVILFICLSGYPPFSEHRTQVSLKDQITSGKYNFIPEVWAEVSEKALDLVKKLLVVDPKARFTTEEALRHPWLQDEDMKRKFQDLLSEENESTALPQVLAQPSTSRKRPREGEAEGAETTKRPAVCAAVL
Sequence of VRK1(h) (Q99986 whole entry): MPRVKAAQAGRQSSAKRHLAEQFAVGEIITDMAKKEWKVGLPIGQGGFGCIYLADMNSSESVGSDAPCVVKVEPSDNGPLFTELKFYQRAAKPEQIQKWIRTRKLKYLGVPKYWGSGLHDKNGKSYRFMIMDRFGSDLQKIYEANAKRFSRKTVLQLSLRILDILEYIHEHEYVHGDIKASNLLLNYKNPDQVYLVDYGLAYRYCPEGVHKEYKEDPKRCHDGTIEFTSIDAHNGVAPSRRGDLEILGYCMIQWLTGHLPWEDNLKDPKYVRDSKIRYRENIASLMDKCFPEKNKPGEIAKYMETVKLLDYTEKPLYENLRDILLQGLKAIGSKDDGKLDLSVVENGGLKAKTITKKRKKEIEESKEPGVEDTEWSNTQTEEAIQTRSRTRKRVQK
T3 sequence (Q96NX5 whole entry): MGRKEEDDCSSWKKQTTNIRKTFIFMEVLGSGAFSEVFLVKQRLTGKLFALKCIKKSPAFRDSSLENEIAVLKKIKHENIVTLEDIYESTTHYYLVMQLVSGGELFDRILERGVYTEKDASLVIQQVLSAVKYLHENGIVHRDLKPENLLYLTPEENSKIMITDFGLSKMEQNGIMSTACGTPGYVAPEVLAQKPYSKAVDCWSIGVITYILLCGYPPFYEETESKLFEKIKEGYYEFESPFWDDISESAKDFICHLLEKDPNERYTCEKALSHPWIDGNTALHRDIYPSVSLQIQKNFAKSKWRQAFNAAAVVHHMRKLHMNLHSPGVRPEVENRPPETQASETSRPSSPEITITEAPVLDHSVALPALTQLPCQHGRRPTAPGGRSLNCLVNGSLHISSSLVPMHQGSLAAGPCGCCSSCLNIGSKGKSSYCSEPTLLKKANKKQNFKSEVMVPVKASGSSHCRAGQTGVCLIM
Sequence of BTK(R28H)(h) (Q06187 whole entry R28H): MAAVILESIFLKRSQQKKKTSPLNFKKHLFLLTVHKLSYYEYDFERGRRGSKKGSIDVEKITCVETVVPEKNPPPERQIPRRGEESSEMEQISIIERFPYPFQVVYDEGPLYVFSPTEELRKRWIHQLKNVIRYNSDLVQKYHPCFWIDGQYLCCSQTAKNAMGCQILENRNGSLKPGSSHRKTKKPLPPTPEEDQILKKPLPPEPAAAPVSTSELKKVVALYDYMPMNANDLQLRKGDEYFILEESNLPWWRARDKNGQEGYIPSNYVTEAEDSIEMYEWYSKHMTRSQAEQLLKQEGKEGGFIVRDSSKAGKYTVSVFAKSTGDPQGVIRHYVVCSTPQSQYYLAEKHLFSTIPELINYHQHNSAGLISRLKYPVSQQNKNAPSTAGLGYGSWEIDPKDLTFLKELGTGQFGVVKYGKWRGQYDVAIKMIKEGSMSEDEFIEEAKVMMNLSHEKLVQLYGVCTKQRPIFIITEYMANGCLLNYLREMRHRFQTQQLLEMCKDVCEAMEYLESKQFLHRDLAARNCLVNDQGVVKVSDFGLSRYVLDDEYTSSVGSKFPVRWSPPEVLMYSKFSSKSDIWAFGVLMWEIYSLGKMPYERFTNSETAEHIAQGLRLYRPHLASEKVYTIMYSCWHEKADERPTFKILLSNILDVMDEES
Sequence of JAK1(h) (P23458 whole entry): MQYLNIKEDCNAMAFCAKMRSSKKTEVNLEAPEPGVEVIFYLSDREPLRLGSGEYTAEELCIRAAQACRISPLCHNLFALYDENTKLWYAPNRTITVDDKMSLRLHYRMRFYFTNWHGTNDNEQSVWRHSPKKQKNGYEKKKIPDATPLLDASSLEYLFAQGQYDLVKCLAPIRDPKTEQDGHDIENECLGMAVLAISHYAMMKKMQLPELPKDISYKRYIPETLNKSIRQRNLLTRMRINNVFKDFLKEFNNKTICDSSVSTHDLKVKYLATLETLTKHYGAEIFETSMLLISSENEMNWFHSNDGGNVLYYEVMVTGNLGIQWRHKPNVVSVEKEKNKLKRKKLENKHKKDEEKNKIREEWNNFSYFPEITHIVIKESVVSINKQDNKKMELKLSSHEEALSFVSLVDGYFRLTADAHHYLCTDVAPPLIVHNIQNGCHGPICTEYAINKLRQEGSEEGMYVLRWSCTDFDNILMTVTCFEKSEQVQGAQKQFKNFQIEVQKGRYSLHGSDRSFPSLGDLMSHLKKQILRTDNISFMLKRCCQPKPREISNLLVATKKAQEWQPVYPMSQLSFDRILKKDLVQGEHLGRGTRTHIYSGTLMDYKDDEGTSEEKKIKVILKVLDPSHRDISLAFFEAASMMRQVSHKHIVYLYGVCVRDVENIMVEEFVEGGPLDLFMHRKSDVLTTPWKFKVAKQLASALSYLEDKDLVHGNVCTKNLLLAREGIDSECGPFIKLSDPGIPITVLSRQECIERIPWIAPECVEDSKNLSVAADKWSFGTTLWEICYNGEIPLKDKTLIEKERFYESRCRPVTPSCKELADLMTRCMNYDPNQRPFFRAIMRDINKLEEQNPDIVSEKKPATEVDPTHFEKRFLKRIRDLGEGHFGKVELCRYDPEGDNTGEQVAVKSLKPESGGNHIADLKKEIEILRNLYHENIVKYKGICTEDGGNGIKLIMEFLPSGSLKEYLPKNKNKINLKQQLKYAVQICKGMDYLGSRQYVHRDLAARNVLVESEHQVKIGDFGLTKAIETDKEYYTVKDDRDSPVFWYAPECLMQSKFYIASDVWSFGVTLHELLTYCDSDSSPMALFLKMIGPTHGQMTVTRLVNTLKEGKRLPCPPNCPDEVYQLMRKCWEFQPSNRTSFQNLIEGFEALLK
T7 sequence (P31751 whole entry): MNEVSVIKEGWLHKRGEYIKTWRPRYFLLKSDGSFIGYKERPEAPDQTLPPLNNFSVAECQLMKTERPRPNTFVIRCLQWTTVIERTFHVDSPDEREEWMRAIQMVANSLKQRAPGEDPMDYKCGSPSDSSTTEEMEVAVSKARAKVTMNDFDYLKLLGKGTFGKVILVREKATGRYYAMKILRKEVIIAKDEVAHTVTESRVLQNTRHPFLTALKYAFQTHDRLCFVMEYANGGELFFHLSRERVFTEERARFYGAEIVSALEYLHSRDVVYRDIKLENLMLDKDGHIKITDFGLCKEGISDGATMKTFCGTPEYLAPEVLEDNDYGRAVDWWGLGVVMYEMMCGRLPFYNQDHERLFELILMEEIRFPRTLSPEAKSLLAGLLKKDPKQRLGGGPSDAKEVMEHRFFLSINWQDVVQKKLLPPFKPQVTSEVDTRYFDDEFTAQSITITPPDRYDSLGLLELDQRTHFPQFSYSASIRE

As to `C1=C(c2nc(-c3cnn(C4CCNCC4)c3)cn3cc(-c4ccccc4)nc23)CCOC1` [YL-939], the remaining activity at 10 µM was determined as 90% in [1]; 107% in [2]; 80% in assay [3]; 82% in [4]; 100% in [5]; 108% in assay [6]. The remaining activity at 10 µM in assay [7] was determined as 73%; in [8], 66%; in assay [9], 103%; in assay [10] it was 86%; in [11] it was 85%; in [12], 109%. The remaining activity at 10 µM in [13] is 99%; in assay [14], 87%; in assay [15], 98%; in [16], 68%; in assay [17], 122%; in assay [18] it was 64%. The remaining activity at 10 µM in assay [19] was 87%; in assay [20], 85%; in [21], 81%; in assay [22], 61%.

Source of the values: publication PMC9719519, “Non-classical ferroptosis inhibition by a small molecule targeting PHB2” (Nature Communications, 2022).
